Laboratory results: publication PMC10692721, “Drug discovery for heart failure targeting myosin-binding protein C” (The Journal of Biological Chemistry, 2023)

Key:
[1] = test system: TMR-cC0-C2 (C0-C2 fragment of human cMyBP-C); assay: FLT-TMR concentration-response assay (FLT of TMR on cC0-C2, no actin); format: binding
Protocol: (§1) Compounds identified as initial hits were further examined to determine the concentration–response curves for seven conditions ([1]): FMAL-actin alone identified actin-binding compounds that alter the FLT of FMAL-actin ([2]).
(§2) Fluorescence lifetime (FLT) measurements were acquired using a high-throughput FLT plate reader (Fluorescence Innovations, Inc) ([14], [27]), provided by Photonic Pharma LLC. […] The observed waveforms were analyzed as described previously ([15], [28]).
(§3) The primary hits were dissolved in DMSO to make a 10 mM stock solution, which was serially diluted in 96-well mother plates. Hits were screened at eight concentrations (0.5–100 μM). […] Compounds (1 μl) were transferred from the mother plates into 384-well plates using a Mosquito HV liquid handler (TTP Labtech Ltd, Hertfordshire, UK). The same procedure of dispensing as for the pilot screening was applied in the concentration-response assays. Concentration dependence of the FLT-FRET (E/EDMSO) or FLT-TMR (Δτ) change data was fit to a Hill equation only under certain conditions to help guide the eye (Fig. 4).

[2] = test system: TMR-fC1-C2 (C1-C2 of fast skeletal MyBP-C); assay: FLT-TMR concentration-response assay, fC1-C2; format: binding
Protocol: as §1, §2, §3

[3] = test system: FMAL-actin/TMR-cC0-C2 interaction; assay: FLT-FRET concentration-response assay, FMAL-actin plus TMR-cC0-C2; format: binding, human; settings: for specificity of FLT-FRET effect for unphosphorylated over phosphorylated cC0-C2: effect on cC0-C2 compared to phosphorylated cC0-C2 (Tables 1 and 2); for effect on FLT-FRET / binding between FMAL-actin and TMR-cC0-C2 (in words): unphosphorylated cC0-C2; for fold effect on increased FRET (or binding) (Table 2): comparison not given
Protocol: as §1, §2, §3

[4] = test system: FMAL-actin/TMR-fC1-C2 interaction; assay: FLT-FRET concentration-response assay, FMAL-actin plus TMR-fC1-C2; format: binding
Protocol: as §1, §2, §3

[5] = test system: FMAL-actin plus TMR-cC0-C2; assay: Selleck library HTS, 473 nm excitation (FLT of FMAL-actin with TMR-cC0-C2, FLT-FRET); format: binding, human; settings: for 473-nm Δτ, Repeat 1 / 473-nm Δτ, Repeat 2: initial screen, 30 μM compound; for 473-nm z-score (based on avg Δτ): robust z-score, hit threshold ±4, 30 μM compound
Protocol: as §2
(§4) In total, 50 nl of each solution was dispensed in DMSO using an automated Echo 550 acoustic liquid dispenser (Labcyte). Compounds were formatted into the assay plates, at a final concentration of 30 μM, with the first two and second to last columns loaded with DMSO only (compound-free controls). In the final column, 30 μM of suramin was loaded as a positive control (tool compound). These assay plates were then heat-sealed using a PlateLoc Thermal Microplate Sealer (Agilent Technologies) and stored at −20 °C. Before screening, compound plates were equilibrated to room temperature (∼25 °C). […] Plates were incubated at room temperature for 60 min before recording the data with the fluorescence lifetime plate reader.
After fitting the waveforms with a single exponential decay to quantify donor FLT, the change in FLT (Δτ) was computed by performing a moving median subtraction in the order the plate was scanned with a window size of half a plate row […]. The reasons for this are twofold. Firstly, plate gradients are often observed due to the heating of the digitizer during acquisition.
To account for the necessity to correct for plate gradients in the computation of E, the median τDMSO prior to the application of the moving median correction was added to each well’s Δτ value to recover a rescaled value of τ.

TMR-cC0-C2 = assay: Selleck library HTS, 532 nm excitation (FLT of TMR-cC0-C2 in presence of FMAL-actin); format: binding, human; settings: for 532-nm Δτ, Repeat 1 / 532-nm Δτ, Repeat 2: initial screen, 30 μM compound; for 532-nm z-score (based on avg Δτ): robust z-score, hit threshold ±4, 30 μM compound
Protocol: as §2, §4
Hits that exceeded the z-score hit criteria in the donor-only screen were excluded from consideration. To remove compounds with confounding fluorescence properties, a similarity index (SI, specifically the cosine distance, Equation 5) was computed using data from the SUPR instrument by comparing a region (500–540 nm) of the donor-only spectrum (I^(a)) for each well to that of the plate-wide average DMSO spectrum (I^(b)) in the same wavelength band ([29]). Compounds that exceeded an SI robust z-score of 4 were deemed likely fluorescent compounds and removed from consideration.(5) SI=1−∑Ii(a).Ii(b)/∑Ii(a).Ii(a)∑Ii(b).Ii(b)

[6] = test system: PKA-phosphorylated TMR-cC0-C2 (cC0-C2#P); assay: FLT-TMR concentration-response assay, PKA-phosphorylated cC0-C2; format: binding, human
Protocol: as §1, §2, §3

[7] = concentration-response, no actin

fold effect on increased FRET (or binding) (Table 2) [3] | Compound | specificity of FLT-FRET effect for unphosphorylated over phosphorylated cC0-C2 [3] | 473-nm Δτ, Repeat 1 [5] [ns] | 473-nm Δτ, Repeat 2 [5] [ns] | 473-nm z-score (based on avg Δτ) [5] | 532-nm Δτ, Repeat 1 (TMR-cC0-C2) [ns] | 532-nm Δτ, Repeat 2 (TMR-cC0-C2) [ns] | 532-nm z-score (based on avg Δτ) (TMR-cC0-C2) | cC0-C2/cC0-C2#P (ratio of FLT changes) ([1]; 60 μM compound) | cC0-C2 FLT change (% change from DMSO, FLT of TMR-MyBP-C) ([1]; 60 μM compound) [%] | cC0-C2#P FLT change (% change from DMSO, FLT of TMR-MyBP-C) ([6]; 60 μM compound) [%] | cC0-C2/fC1-C2 (ratio of FLT changes) ([2]; 60 μM compound) | fC1-C2 FLT change (% change from DMSO, FLT of TMR-MyBP-C) ([2]; 60 μM compound) [%] | other results
fivefold or greater | C[C@@H]1O[C@@H](O[C@H]2[C@H](O[C@H]3CC[C@@]4(C)[C@@H](CC[C@]5(C)[C@@H]4CC=C4[C@@H]6CC(C)(C)CC[C@]6(C(=O)O)CC[C@]45C)[C@]3(C)CO)OC[C@H](O)[C@@H]2O)[C@H](O)[C@H](O)[C@H]1O [α-Hederin] | 13–54 fold | -0.087 | -0.051 | -3.83 | 0.105 | 0.175 | 8.58 | 0.9 | 6.7 | 7.1 | 1.0 | 6.7 | 
fivefold or greater | Verteporfin |  | 0.093 | 0.064 | 4.41 | 0.065 | 0.075 | 4.32 |  |  |  |  |  | cC0-C2/cC0-C2#P (ratio of FLT changes) ([1]; 10 μM compound (∗)): 0.8; cC0-C2 FLT change (% change from DMSO, FLT of TMR-MyBP-C) ([1]; 10 μM compound (∗)): 5.5%; cC0-C2#P FLT change (% change from DMSO, FLT of TMR-MyBP-C) ([6]; 10 μM compound (∗)): 6.8%; cC0-C2/fC1-C2 (ratio of FLT changes) ([2]; 10 μM compound (∗)): 2.2; fC1-C2 FLT change (% change from DMSO, FLT of TMR-MyBP-C) ([2]; 10 μM compound (∗)): 2.5%; specificity of FLT-FRET effect for cC0-C2 over fC1-C2 ([3]; effect on cC0-C2 compared to fC1-C2 (Tables 1 and 2)): 22.4 fold

The next lines start with the compound.

Compound | fold effect on increased FRET (or binding) (Table 2) [3] | specificity of FLT-FRET effect for unphosphorylated over phosphorylated cC0-C2 [3] | 473-nm Δτ, Repeat 1 [5] [ns] | 473-nm Δτ, Repeat 2 [5] [ns] | 473-nm z-score (based on avg Δτ) [5] | 532-nm Δτ, Repeat 1 (TMR-cC0-C2) [ns] | 532-nm Δτ, Repeat 2 (TMR-cC0-C2) [ns] | 532-nm z-score (based on avg Δτ) (TMR-cC0-C2) | cC0-C2/cC0-C2#P (ratio of FLT changes) ([1]; 60 μM compound) | cC0-C2 FLT change (% change from DMSO, FLT of TMR-MyBP-C) ([1]; 60 μM compound) [%] | cC0-C2#P FLT change (% change from DMSO, FLT of TMR-MyBP-C) ([6]; 60 μM compound) [%] | cC0-C2/fC1-C2 (ratio of FLT changes) ([2]; 60 μM compound) | fC1-C2 FLT change (% change from DMSO, FLT of TMR-MyBP-C) ([2]; 60 μM compound) [%] | other results
Sacubitril/valsartan [Sacubitril/valsartan (LCZ696)] |  | stronger reduction of FRET with non-phosphorylated than phosphorylated | 0.140 | 0.095 | 6.60 | -0.025 | 0.012 | -0.37 |  |  |  |  |  | effect on FLT of TMR-cC0-C2 (in words) [1, 7]: do not affect; effect on FLT of TMR-fC1-C2 (in words) [2, 7]: do not affect; effect on FLT-FRET / binding between FMAL-actin and TMR-cC0-C2 (in words) [3]: decreased; effect on FLT-FRET / binding between FMAL-actin and TMR-fC1-C2 (in words) [4]: decreased
CCCCC(=O)N(Cc1ccc(-c2ccccc2-c2nnn[nH]2)cc1)[C@H](C(=O)O)C(C)C [Valsartan] |  | stronger reduction of FRET with non-phosphorylated than phosphorylated | 0.149 | 0.058 | 5.83 | 0.000 | 0.013 | 0.44 |  |  |  |  |  | effect on FLT-FRET / binding between FMAL-actin and TMR-cC0-C2 (in words) [3]: decreased; effect on FLT-FRET / binding between FMAL-actin and TMR-fC1-C2 (in words) [4]: decreased
Cc1nc(-c2ccc(OCC(C)C)c(C#N)c2)sc1C(=O)O [Febuxostat] |  |  | 0.070 | 0.043 | 3.18 | 0.129 | 0.132 | 8.01 | 0.8 | 9.6 | 12.1 | 0.7 | 14.6 | 
C[C@H]1O[C@@H](O[C@H]2CC[C@@]3(C)[C@@H](CC[C@]4(C)[C@@H]3C=C[C@]35OC[C@@]6(CCC(C)(C)C[C@H]63)[C@H](O)C[C@]54C)[C@]2(C)CO)[C@H](O)[C@@H](O[C@@H]2O[C@H](CO)[C@@H](O)[C@H](O)[C@H]2O)[C@H]1O [Saikosaponin D] | fivefold or greater | 13–54 fold | -0.122 | -0.094 | -5.99 | 0.065 | 0.086 | 4.65 | 0.9 | 5.4 | 6.3 | 1.3 | 4.2 | 
CC1(C)CC[C@]2(C(=O)O)CC[C@]3(C)C(=CC[C@@H]4[C@@]5(C)CC[C@H](O)[C@@](C)(CO)[C@@H]5CC[C@]43C)[C@@H]2C1 [Hederagenin] |  |  | 0.083 | 0.060 | 4.06 | -0.038 | -0.038 | -2.29 | 0.7 | 2.5 | 3.6 | 1.1 | 2.3 | 
Cc1cnc(C(=O)N[C@H]2CCCCC/C=C\[C@@H]3C[C@@]3(C(=O)NS(=O)(=O)C3CC3)NC(=O)[C@@H]3C[C@@H](Oc4nc5ccccc5c5ccccc45)CN3C2=O)cn1 [Paritaprevir (ABT-450), Paritaprevir] |  |  | 0.115 | 0.058 | 4.85 | 0.220 | 0.254 | 14.52 | 1.2 | 23.8 | 20.3 | 2.2 | 11.0 | 
